In patent US11618738B2, “Compound and application thereof in treating inflammation or inflammation-related diseases” (SICHUAN CENTER FOR TRANSLATIONAL MEDICINE OF TRADITIONAL …, priority 2017, dated 2023):
Read-outs that look alike come from different tables or passages of the source.

Legend:
NO induced by LPS = experiment: Inhibition of LPS-induced NO in RAW 264.7 cells (Greiss reagent); format: cell-based, mice; details: for IC50: Mus musculus, RAW264.7
Description: Nitric oxide (NO) is a signaling molecule that plays a key role in the pathogenesis of inflammation. Under abnormal conditions, NO is a pro-inflammatory mediator that causes inflammation due to its overproduction. Therefore, the regulation of elevated NO levels by stimulants (such as LPS) has been widely used as a screening method to identify anti-inflammatory drugs. Since NO is oxidized into nitrite and nitrate, the determination of total NO2^−/NO3^− is a conventional method for determining NO levels, and Griess reagent is usually used in this type of experiment.
(§1) This example is taken from a previous publication by Song et al.^[1]. In brief, mice RAW 264.7 cells were treated with increasing doses of each test compound at 37° C. for 1 hour. Thereafter, the cells were attacked with 20 μL/well of LPS (equivalent to a final concentration of 100 ng/mL). The cells were further incubated overnight at 37° C. A commercial ELISA assay kit obtained from R&D Systems (Minneapolis, Minn.) was used to determine the level of PGE2 in the supernatant, and three parallel experiments were performed. The optical density of each well was measured using a BioTek Epoch microplate reader (Winooski, Vt.) set to 450 nm. The NO study was performed in a similar manner, but Greiss reagent was used to monitor the level of NO, and the results were read at 550 nm.

PGE2 induced by LPS = experiment: Inhibition of LPS-induced PGE2 in RAW 264.7 cells (ELISA); format: cell-based, mice; details: for PGE2 inhibition (%): RAW 264.7 cells, LPS 100 ng/mL, overnight, test concentration not given; for PGE2 inhibition rate (in words): same experimental method as Table 1
Experimental: as §1

[1] = system: 10% egg white-induced foot swelling in rats; experiment: 10% egg white-induced foot swelling in rats; format: in vivo; details: for Foot swelling: 6.67 mg/kg gavage once a day for 3 days, mean ± SD
Description: Injecting 10% egg white into rat paws can cause early acute inflammation such as redness, heat, swelling, and pain in rat paws. In this experiment, the anti-inflammatory effects of UTLOH series compounds were observed by the degree of swelling of the paws of rats after inflammation.
SPF grade SD rats, half female and half male (100-120 g/mouse) were randomly grouped according to body weight. Each group was given the corresponding drugs by gavage, once a day, for 3 consecutive days, with a gavage volume of 1 ml/100 g. Before the experiment, the ankle joint of the right hind foot of each group of rats was marked, and the foot volume of each group of rats was measured twice with a rat foot volume meter, and the average of the two times was taken as the […]. 30 minutes after the last administration, the rats in each group were given a subcutaneous needle in the right hind paw, and injected with 10% fresh egg white solution 0.1 ml/mouse to cause inflammation, establishing a rat model of paw swelling. The post-inflamed foot volume in mice was measured twice at 1 h, 2 h, 3 h, and 4 h after inflammation, and the average of the two times was taken as the post-inflamed foot volume. The normal group was given 1 ml/100 g volume of 0.5% CMC-Na solution by gavage according to body weight.

[2] = system: acute gouty arthritis in rats induced by sodium urate crystals; experiment: Foot swelling in rats with acute gouty arthritis induced by sodium urate crystals; format: in vivo; details: for Foot swelling: 16.67 mg/kg once a day, mean ± SD
Experimental: Injecting sodium urate crystals into the joint cavity to establish an acute gouty arthritis model. Its pathological and clinical manifestations are very similar. It is a classic method commonly used in animal experiments to study gouty arthritis. This experiment will explore the effects of UTLOH series drugs on animals with acute gouty arthritis induced by sodium urate.
SPF grade SD rats, half female and half male (200-220 g/mouse), were randomly grouped by weight. The drug was administered once a day, for 3 consecutive days. […] Rats in the normal group were injected with an equal volume of sterile saline to the back of the right ankle joint. The administration was continued after modeling, once a day for 3 consecutive days. The ankle joint and foot volume of the rats in each group were measured respectively before modeling and 2 h, 4 h, 8 h, 24 h and 48 h after modeling.

[3] = RAW 264.7 cells, LPS 100 ng/mL, overnight, read-out: NO IC50 (μM), class
[4] = RAW 264.7 cells, LPS 100 ng/mL, overnight, read-out: NO IC50 (μM), value in brackets
[5] = same method as Table 1, given as 10-50 μM, or <10 μM, read-out: IC50 of NO

C/C(O)=C(\C#N)C(=O)Nc1ccc(C(F)(F)F)cc1 [Teriflunomide, reference compound]
IC50 (NO induced by LPS; [3]): 150 to 250 µM
IC50 (NO induced by LPS; [4]): 175 µM
PGE2 inhibition (%) (PGE2 induced by LPS): 70.2%

Cc1cc(C(=O)Nc2cccc(O)c2)no1 [UTLOH-4b]
IC50 (NO induced by LPS; [3]): < 10 µM
IC50 (NO induced by LPS; [4]): 7.7 µM
PGE2 inhibition (%) (PGE2 induced by LPS): 64.0%

Cc1cc(C(=O)Nc2ccc(O)c(O)c2)no1 [UTLOH-4h]
IC50 (NO induced by LPS; [5]): ≤ 50 µM
PGE2 inhibition rate (in words) (PGE2 induced by LPS): very good

Cc1cc(C(=O)Nc2cccc(O)c2O)no1 [UTLOH-4d]
IC50 (NO induced by LPS; [5]): ≤ 50 µM
PGE2 inhibition rate (in words) (PGE2 induced by LPS): very good

Cc1cc(C(=O)Nc2c(O)cccc2O)no1 [UTLOH-4g]
IC50 (NO induced by LPS; [5]): ≤ 50 µM
PGE2 inhibition rate (in words) (PGE2 induced by LPS): very good

Cc1cc(C(=O)Nc2cc(O)ccc2O)no1 [UTLOH-4f]
IC50 (NO induced by LPS; [5]): ≤ 50 µM
PGE2 inhibition rate (in words) (PGE2 induced by LPS): very good

Cc1cc(C(=O)Nc2cc(O)cc(O)c2)no1 [UTLOH-4i]
IC50 (NO induced by LPS; [5]): ≤ 50 µM
PGE2 inhibition rate (in words) (PGE2 induced by LPS): very good

Cc1cc(C(=O)Nc2c(O)cc(O)cc2O)no1 [UTLOH-4k]
IC50 (NO induced by LPS; [5]): ≤ 50 µM
PGE2 inhibition rate (in words) (PGE2 induced by LPS): very good

Cc1oncc1C(=O)Nc1ccc(C(F)(F)F)cc1 [Leflunomide, reference compound]
IC50 (NO induced by LPS; [3]): > 250 µM
IC50 (NO induced by LPS; [4]): 298 µM
PGE2 inhibition (%) (PGE2 induced by LPS): 54.0%
Foot swelling ([1]; 1 h after inflammation): 0.63 ± 0.14 mL
Foot swelling ([1]; 2 h after inflammation): 0.62 ± 0.15 mL
Foot swelling ([1]; 3 h after inflammation): 0.54 ± 0.14 mL
Foot swelling ([1]; 4 h after inflammation): 0.43 ± 0.11 mL
degree of foot swelling compared with the normal group (in words) ([1]; at 1 h and 2 h): significantly reduced

Cc1cc(C(=O)Nc2ccc(O)cc2)no1 [UTLOH-4c]
IC50 (NO induced by LPS; [3]): < 10 µM
IC50 (NO induced by LPS; [4]): 6.3 µM
inhibition of LPS-induced NO compared with leflunomide and teriflunomide (in words) (NO induced by LPS; compared with leflunomide and teriflunomide): more strongly
PGE2 inhibition (%) (PGE2 induced by LPS): 73.1%
inhibition on PGE2 compared to leflunomide (in words) (PGE2 induced by LPS; compared to leflunomide): stronger

COc1cc2c(c(OC)c1OC)-c1ccc(OC)c(=O)cc1[C@@H](NC(C)=O)CC2 [Colchicine, reference compound]
Foot swelling ([2]; 2 h after modeling): 0.16 ± 0.12 mL
Foot swelling ([2]; 4 h after modeling): 0.21 ± 0.10 mL
Foot swelling ([2]; 8 h after modeling): 0.19 ± 0.10 mL
Foot swelling ([2]; 24 h after modeling): 0.20 ± 0.10 mL
Foot swelling ([2]; 48 h after modeling): 0.07 ± 0.09 mL
degree of foot swelling versus model group (in words) ([2]; gavage, at each time point): significantly lower
